{"source": "patent US20080300298A1", "about": "“Honokiol Derivates For the Treatment of Proliferative Disorders” (priority 2005, published 2008)", "key": {"MDA-MB-231 cells": {"test_system": "MDA-MB-231 cells", "experiment": "MDA-MB-231 tumors in nude mice", "format": "in vivo", "experimental": "FIG. 36 is a graph of tumor volume over weeks of tumors in mice. MDA-MB-231 cells were injected into both flanks of athymic nude mice. The mice were treated with daily I.P. injections of either a vehicle (n=5) or HNK (2 mg/d, n=5) for four weeks.\nAnimal studies: All animals were maintained and animal experiments were performed under NIH and institutional guidelines established for the Animal Core Facility at the Cedars-Sinai Medical Center. MDA-MB-231 cells were harvested, washed twice with sterile PBS, counted and re-suspended in Matrigel (BD Biosciences, San Jose, Calif.). Six-week-old female athymic nude mice were injected subcutaneously in both flanks with cells at a density of 1×10^6 viable cells/100 μl. […] Tumor size was measured with a linear caliper for up to 5 weeks, and the volume was estimated by using the equation V=(a×b2)×0.5236, where “a” is the larger dimension and “b” the perpendicular diameter.\nIn vivo activity of HNK against human breast cancer. MDA-MB-231 cells were injected on both flanks of nude mice (1×10^6 cells per injection, five mice per group, two tumors in each mouse), and tumor growth was monitored weekly. […] The mice were treated with daily injections of either 2 mg HNK (100 mg/kg) or a control vehicle for four weeks; and the tumors were measured weekly."}, "[1]": {"test_system": "caspases, PARP, AIF in MM.1S cells", "experiment": "Western blotting of apoptotic pathway", "format": "cell-based, human", "settings": "10 ug/ml"}}, "data": [{"smiles": "C=CCc1ccc(O)c(-c2ccc(O)c(CC=C)c2)c1", "note": "[HNK, Honokiol]", "values": [{"measurement": "tumor growth", "setting": "MDA-MB-231 cells; 2 mg HNK (100 mg/kg) daily i.p., four weeks, p<0.02 from week 2", "result": "complete arrest of tumor growth"}, {"measurement": "tolerability in the animals", "setting": "MDA-MB-231 cells; therapeutically beneficial doses", "result": "well tolerated by the animals"}, {"measurement": "cleavage of caspases and PARP", "setting": "[1]; 12 and 24 h", "result": "Cleavage of caspases 7, 8, 9 and PARP were induced"}, {"measurement": "release of AIF", "setting": "[1]; 24 h", "result": "induced release of mitochondrial pro-apoptotic protein AIF to cytosol"}]}]}
